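Each compound was tested at five concentrations against cells in 96-well plates for 48 hours. Definition used: TGI = concentration required for complete inhibition of growth.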
Key:
Assay in all cases: NCI-60 cell line screen, 48 h
DMS 273 small cell lung = system: DMS 273 small cell lung
SW-620 colon = system: SW-620 colon
HCT-15 colon = system: HCT-15 colon
HL-60(TB) leukemia = system: HL-60(TB) leukemia
IGROV1 ovarian = system: IGROV1 ovarian
CCRF-CEM leukemia = system: CCRF-CEM leukemia
OVCAR-5 ovarian = system: OVCAR-5 ovarian
NCI-H460 lung = system: NCI-H460 lung
NCI-H522 lung = system: NCI-H522 lung
RPMI-8226 leukemia = system: RPMI-8226 leukemia
NCI-H23 lung = system: NCI-H23 lung
OVCAR-8 ovarian = system: OVCAR-8 ovarian
SF-539 CNS = system: SF-539 CNS
DLD-1 colon = system: DLD-1 colon
MALME-3M melanoma = system: MALME-3M melanoma
HCT-116 colon = system: HCT-116 colon
SNB-78 CNS = system: SNB-78 CNS
SK-OV-3 ovarian = system: SK-OV-3 ovarian
OVCAR-4 ovarian = system: OVCAR-4 ovarian
DMS 114 small cell lung = system: DMS 114 small cell lung
UACC-257 melanoma = system: UACC-257 melanoma
K-562 leukemia = system: K-562 leukemia
M14 melanoma = system: M14 melanoma
NCI-H226 lung = system: NCI-H226 lung
U251 CNS = system: U251 CNS
UO-31 renal = system: UO-31 renal
786-0 renal = system: 786-0 renal
ACHN renal = system: ACHN renal
SK-MEL-28 melanoma = system: SK-MEL-28 melanoma
HT29 colon = system: HT29 colon
SNB-75 CNS = system: SNB-75 CNS
UACC-62 melanoma = system: UACC-62 melanoma
SK-MEL-2 melanoma = system: SK-MEL-2 melanoma
OVCAR-3 ovarian = system: OVCAR-3 ovarian
HOP-62 NSCLC = system: HOP-62 NSCLC
SN12C renal = system: SN12C renal
TK-10 renal = system: TK-10 renal
SF-295 CNS = system: SF-295 CNS
SF-268 CNS = system: SF-268 CNS
COLO 205 colon = system: COLO 205 colon
M19-MEL melanoma = system: M19-MEL melanoma
LXFL 529 NSCLC = system: LXFL 529 NSCLC
A549 NSCLC = system: A549 NSCLC
SR leukemia = system: SR leukemia
HCC-2998 colon = system: HCC-2998 colon
SK-MEL-5 melanoma = system: SK-MEL-5 melanoma
A498 renal = system: A498 renal
HOP-92 NSCLC = system: HOP-92 NSCLC
HOP-18 NSCLC = system: HOP-18 NSCLC
MOLT-4 leukemia = system: MOLT-4 leukemia
KM12 colon = system: KM12 colon
CAKI-1 renal = system: CAKI-1 renal
LOX IMVI melanoma = system: LOX IMVI melanoma
RXF 393 renal = system: RXF 393 renal
KM20L2 colon = system: KM20L2 colon
EKVX NSCLC = system: EKVX NSCLC
SNB-19 CNS = system: SNB-19 CNS

SMILES: Clc1ccc(C2=NOC(C3CCCCC3)C2)cc1 (stereo not drawn)
- TGI (DMS 273 small cell lung): > 100 µM
- TGI (SW-620 colon): > 100 µM
- TGI (HCT-15 colon): > 100 µM
- TGI (HL-60(TB) leukemia): > 100 µM
- TGI (IGROV1 ovarian): > 100 µM
- TGI (CCRF-CEM leukemia): > 100 µM
- TGI (OVCAR-5 ovarian): > 100 µM
- TGI (NCI-H460 lung): > 100 µM
- TGI (NCI-H522 lung): > 100 µM
- TGI (RPMI-8226 leukemia): > 100 µM
- TGI (NCI-H23 lung): > 100 µM
- TGI (OVCAR-8 ovarian): > 100 µM
- TGI (SF-539 CNS): > 100 µM
- TGI (DLD-1 colon): > 100 µM
- TGI (MALME-3M melanoma): > 100 µM
- TGI (HCT-116 colon): > 100 µM
- TGI (SNB-78 CNS): > 100 µM
- TGI (SK-OV-3 ovarian): > 100 µM
- TGI (OVCAR-4 ovarian): > 100 µM
- TGI (DMS 114 small cell lung): > 100 µM
- TGI (UACC-257 melanoma): > 100 µM
- TGI (K-562 leukemia): > 100 µM
- TGI (M14 melanoma): > 100 µM
- TGI (NCI-H226 lung): > 100 µM
- TGI (U251 CNS): > 100 µM
- TGI (UO-31 renal): > 100 µM
- TGI (786-0 renal): > 100 µM
- TGI (ACHN renal): > 100 µM
- TGI (SK-MEL-28 melanoma): > 100 µM
- TGI (HT29 colon): > 100 µM
- TGI (SNB-75 CNS): > 100 µM
- TGI (UACC-62 melanoma): > 100 µM
- TGI (SK-MEL-2 melanoma): > 100 µM
- TGI (OVCAR-3 ovarian): > 100 µM
- TGI (HOP-62 NSCLC): > 100 µM
- TGI (SN12C renal): > 100 µM
- TGI (TK-10 renal): > 100 µM
- TGI (SF-295 CNS): > 100 µM
- TGI (SF-268 CNS): > 100 µM
- TGI (COLO 205 colon): > 100 µM
- TGI (M19-MEL melanoma): > 100 µM
- TGI (LXFL 529 NSCLC): > 100 µM
- TGI (A549 NSCLC): > 100 µM
- TGI (SR leukemia): > 100 µM
- TGI (HCC-2998 colon): > 100 µM
- TGI (SK-MEL-5 melanoma): > 100 µM
- TGI (A498 renal): > 100 µM
- TGI (HOP-92 NSCLC): > 100 µM
- TGI (HOP-18 NSCLC): > 100 µM
- TGI (MOLT-4 leukemia): > 100 µM
- TGI (KM12 colon): > 100 µM

SMILES: Cc1nc2ccccc2c(=O)n1NC(=S)Nc1ccccc1
- TGI (DMS 273 small cell lung): > 100 µM
- TGI (SW-620 colon): > 100 µM
- TGI (HCT-15 colon): > 100 µM
- TGI (HL-60(TB) leukemia): > 100 µM
- TGI (IGROV1 ovarian): > 100 µM
- TGI (CCRF-CEM leukemia): > 100 µM
- TGI (OVCAR-5 ovarian): > 100 µM
- TGI (NCI-H460 lung): > 100 µM
- TGI (NCI-H522 lung): > 100 µM
- TGI (RPMI-8226 leukemia): > 100 µM
- TGI (NCI-H23 lung): > 100 µM
- TGI (OVCAR-8 ovarian): > 100 µM
- TGI (SF-539 CNS): > 100 µM
- TGI (DLD-1 colon): > 100 µM
- TGI (MALME-3M melanoma): > 100 µM
- TGI (HCT-116 colon): > 100 µM
- TGI (SK-OV-3 ovarian): > 100 µM
- TGI (OVCAR-4 ovarian): > 100 µM
- TGI (DMS 114 small cell lung): > 100 µM
- TGI (UACC-257 melanoma): > 100 µM
- TGI (K-562 leukemia): > 100 µM
- TGI (M14 melanoma): > 100 µM
- TGI (NCI-H226 lung): > 100 µM
- TGI (U251 CNS): > 100 µM
- TGI (CAKI-1 renal): > 100 µM
- TGI (UO-31 renal): > 100 µM
- TGI (786-0 renal): > 100 µM
- TGI (ACHN renal): > 100 µM
- TGI (SK-MEL-28 melanoma): > 100 µM
- TGI (HT29 colon): > 100 µM
- TGI (SNB-75 CNS): > 100 µM
- TGI (LOX IMVI melanoma): > 100 µM
- TGI (UACC-62 melanoma): > 100 µM
- TGI (SK-MEL-2 melanoma): > 100 µM
- TGI (HOP-62 NSCLC): > 100 µM
- TGI (SN12C renal): > 100 µM
- TGI (RXF 393 renal): > 100 µM
- TGI (TK-10 renal): > 100 µM
- TGI (SF-295 CNS): > 100 µM
- TGI (SF-268 CNS): > 100 µM
- TGI (COLO 205 colon): > 100 µM
- TGI (M19-MEL melanoma): > 100 µM
- TGI (LXFL 529 NSCLC): > 100 µM
- TGI (A549 NSCLC): > 100 µM
- TGI (SR leukemia): > 100 µM
- TGI (SK-MEL-5 melanoma): > 100 µM
- TGI (A498 renal): > 100 µM
- TGI (HOP-92 NSCLC): > 100 µM
- TGI (HOP-18 NSCLC): > 100 µM
- TGI (MOLT-4 leukemia): > 100 µM
- TGI (KM12 colon): > 100 µM

SMILES: CCCC(=O)c1ccc2c(ccc(=O)n2C)c1
- TGI (DMS 273 small cell lung): > 100 µM
- TGI (SW-620 colon): > 100 µM
- TGI (HCT-15 colon): > 100 µM
- TGI (HL-60(TB) leukemia): > 100 µM
- TGI (IGROV1 ovarian): > 100 µM
- TGI (CCRF-CEM leukemia): > 100 µM
- TGI (OVCAR-5 ovarian): > 100 µM
- TGI (NCI-H460 lung): > 100 µM
- TGI (NCI-H522 lung): > 100 µM
- TGI (RPMI-8226 leukemia): > 100 µM
- TGI (NCI-H23 lung): > 100 µM
- TGI (OVCAR-8 ovarian): > 100 µM
- TGI (KM20L2 colon): > 100 µM
- TGI (SF-539 CNS): > 100 µM
- TGI (DLD-1 colon): > 100 µM
- TGI (EKVX NSCLC): > 100 µM
- TGI (MALME-3M melanoma): > 100 µM
- TGI (HCT-116 colon): > 100 µM
- TGI (SK-OV-3 ovarian): > 100 µM
- TGI (OVCAR-4 ovarian): > 100 µM
- TGI (DMS 114 small cell lung): > 100 µM
- TGI (K-562 leukemia): > 100 µM
- TGI (M14 melanoma): > 100 µM
- TGI (NCI-H226 lung): > 100 µM
- TGI (U251 CNS): > 100 µM
- TGI (CAKI-1 renal): > 100 µM
- TGI (786-0 renal): > 100 µM
- TGI (SK-MEL-28 melanoma): > 100 µM
- TGI (HT29 colon): > 100 µM
- TGI (SNB-75 CNS): 92.3 µM
- TGI (LOX IMVI melanoma): > 100 µM
- TGI (UACC-62 melanoma): > 100 µM
- TGI (SK-MEL-2 melanoma): > 100 µM
- TGI (OVCAR-3 ovarian): > 100 µM
- TGI (HOP-62 NSCLC): > 100 µM
- TGI (SNB-19 CNS): > 100 µM
- TGI (SN12C renal): > 100 µM
- TGI (TK-10 renal): > 100 µM
- TGI (SF-295 CNS): > 100 µM
- TGI (SF-268 CNS): > 100 µM
- TGI (COLO 205 colon): > 100 µM
- TGI (M19-MEL melanoma): > 100 µM
- TGI (LXFL 529 NSCLC): > 100 µM
- TGI (A549 NSCLC): > 100 µM
- TGI (HCC-2998 colon): > 100 µM
- TGI (SK-MEL-5 melanoma): > 100 µM
- TGI (A498 renal): > 100 µM
- TGI (HOP-92 NSCLC): > 100 µM
- TGI (HOP-18 NSCLC): > 100 µM
- TGI (MOLT-4 leukemia): > 100 µM
- TGI (KM12 colon): > 100 µM

From PubChem BioAssay (NCI)
